In paper PMC9747239, “State-selective modulation of heterotrimeric Gαs signaling with macrocyclic peptides” (Cell, 2022):
Where a SMILES comes first, the peptide text is derived from it. Bridges are numbered along the chain shown (N, C = ends). [ ]: non-standard residue; d: D form.

Legend:
Plasma stability assay = format: in vitro ADME; settings: both sexes, pooled human plasma, 37 °C, values represent 95% confidence intervals, read-out: Half-life (hour), plasma stability
Description: (§1) These assays were conducted by Pharmaron Beijing CO., Ltd. Cyclic peptides working solutions were prepared at 10 μM in DMEM with 10% FBS (Avantor, Cat# 76,294–180) or human plasma (Pooled, Male & Female, BioIVT, Cat# HMN666664). The assays were performed in duplicate. Vials were incubated at 37 °C at 60 rpm in a water bath and taken at designated time points including 0, 480, 1080 and 1440 min. For each time point, the initiation of the reaction was staggered so all the time points were terminated with cold acetonitrile containing internal standards (IS, 100 nM alprazolam, 200 nM labetalol, 200 nM Imipramine and 2 μM ketoplofen) at the same time. Samples were vortexed then centrifuged at 4°C to remove proteins. The supernatants from centrifugation were diluted by ultra-pure H2O and used for LC-MS/MS analysis. All calculations were carried out using GraphPad Prism. Remaining percentages of parent compounds at each time point were estimated by determining the peak area ratios from extractedion chromatograms.

Gαs/GDP = target: T1, Gαs/GDP (Homo sapiens, UniProt P63092); assay: Bio-layer interferometry (BLI), GDP-bound Gαs; settings: read-out: KD, binding to Gαs/GDP
T1 construct: hexahistidine (N, cleaved yes); made in house; host or cells: E. coli BL21(DE3)
Description: (§2) BLI experiments were performed using an OctetRED384 instrument from ForteBio. All experiments were performed at 25°C using BLI buffer (10 mM HEPES pH 7.4, 150 mM NaCl, 1mM MgCl2, 0.05% Tween 20, 0.1% DMSO, 0.2 mM GNP or GDP). Cyclic peptides or Gα proteins were diluted to a series of concentrations (Final concentrations were indicated in Figures) in BLI buffer plus 10 μM Biotin. Assays were conducted in Greiner 384well, black, flat bottom polypropylene plates containing the protein solutions, BLI buffer plus 10 μM Biotin for dissociation, and serial dilutions of cyclic peptides to be tested.
(§3) Biotinylated proteins or cyclic peptides were immobilized on Streptavidin biosensors by dipping sensors into plate wells containing protein solutions at a concentration of 50–150 nM. Protein loading is around 2–3 nm. Cyclic peptide loading is around 0.2–0.3 nm. Sensors loaded with proteins or cyclic peptides were moved and dipped into wells with BLI buffer plus 10 μM Biotin to block unlabeled Streptavidin. […]
(§4) Raw kinetic data collected were processed with the Data Analysis software provided by the manufacturer using single reference subtraction in which buffer-only reference was subtracted (For GN13 analysis). […] The resulting data were analyzed based on a 1:1 binding model from which kon and koff values were obtained and then Kd values were calculated.

long isoform of Gαs = target: T2, long isoform of Gαs (Homo sapiens, UniProt P63092); assay: Steady-state GTPase assay, Gαs long isoform; format: biochemical; settings: read-out: IC50, inhibition of steady-state GTPase activity of long isoform of Gαs
T2 construct: made in house; host or cells: E. coli BL21(DE3)
Description: (§5) WT Gαs (both short and long) was diluted to a 6 μM stock (4X) in GTPase assay buffer (20 mM HEPES 7.5, 150 mM NaCl, 1 mM MgCl2). The protein was 1:1 (v/v) diluted with 4X cyclic peptide stock (0, 1.56, 3.12, 6.25, 12.5, 25, 50, 100 μM) in GTPase assay buffer, and incubated at 37°C for an hour. The samples were then 1:1 (v/v) diluted with reaction buffer (20 mM HEPES 7.5, 150 mM NaCl, 1 mM MgCl2, and 1 mM GTP) and incubated at 37°C. After 30, 50, 70, 90 min, 50 μL of the sample was removed to measure the inorganic phosphate (Pi) concentration by PiColorLock Phosphate Detection kit. A standard curve was made using the 0.1 mM Pi stock in the kit. Final [cyclic peptide]: 0, 0.39, 0.78, 1.56, 3.12, 6.25, 12.5, 25 μM; Final [Gαs]: 1.5 μM; Final [GTP]: 500 μM.

Gαs/GDP and Gβγ(C68S) = target: T3, Gαs/GDP and Gβγ(C68S) (Homo sapiens, UniProt P63092); assay: FRET based Gαs/Gβγ interaction assay; format: binding; settings: FRET, Gαs/GDP 4 nM, Gβ1/γ2(C68S) 2 nM; read-out: IC50, inhibition of Gαs/Gβγ interaction
T3 construct: hexahistidine (N, cleaved yes); made in house; host or cells: E. coli BL21(DE3) (Gαs); Sf9 insect cells (Gβ1γ2)

Gαs = target: T4, Gαs (Homo sapiens, UniProt P63092); assay: Steady-state GTPase assay, Gαs short isoform; format: biochemical; settings: read-out: IC50, inhibition of Gαs steady-state GTPase activity
T4 construct: vector His tag with thrombin/Drice site (removed); made in house; host or cells: E. coli BL21(DE3)
Description: as §5

[1] = Chemical stability assay in DMEM with 10% FBS; format: in vitro ADME; settings: bovine, DMEM with 10% FBS (fetal bovine serum), 37 °C, values represent 95% confidence intervals, read-out: Half-life (hour), chemical stability in DMEM with 10% FBS
Description: as §1

Gαs (short isoform) = target: T5, Gαs (short isoform) (Homo sapiens, UniProt P63092); assay: Reconstituted adenylyl cyclase (AC) activity assay, Gαs/GNP-mediated AC activation; format: biochemical; settings: Gαs/GNP 125 nM, read-out: IC50, inhibition of Gαs-mediated AC activation
T5 construct: vector His tag with thrombin/Drice site (removed); made in house; host or cells: E. coli BL21(DE3)
Description: Cyclic peptides (4 mM stock in DMSO) were diluted to 4X stocks with a series of concentrations in reaction buffer (1x PBS 7.4, 0.1% BSA). Gαs at a concentration of 8.5 mg/mL (about 190 μM) in 20 mM HEPES 8.0, 150 mM NaCl, 5 mM MgCl2, 1 mM EDTA-Na 8.0 was diluted to 0.5 μM in dilution buffer (1x PBS 7.4, 0.1% BSA, 1 mM EDTA-Na 8.0, 2 mM DTT, 0.1mM MgCl2) plus 1mM GNP (For the GDP-bound R201 mutants, GDP was used in the nucleotide exchange experiments). After incubation at room temperature for 1 h to allow nucleotide exchange, 2.5 μL of 4x Gαs dilution was mixed with 1 μL MgCl2 stock (20 mM MgCl2, 1x PBS 7.4, 0.1% BSA) in an OptiPlate-384, White Opaque 384-well Microplate to lock Gαs in GNP-bound state. 2 μL of 5x AC stock (2 μM VC1, 2 nM IIC2, 150 μM FSK, 1x PBS 7.4, 0.1% BSA) was added, followed by addition of 2.5 μL 4X cyclic peptides stock. […] The cAMP concentrations were measured by the LANCE Ultra cAMP kit. […]
cAMP concentrations measurement by the LANCE Ultra cAMP kit: A cAMP standard curve was generated in the same plate using the 50 μM cAMP standard in the kit. […] 10 μL of each diluted sample was mixed with 5 μL of 4X Eu-cAMP tracer and 5 μL of 4X ULight-anti-cAMP in a white, opaque Optiplate-384 microplate, incubated for 1 h at room temperature, and the time-resolved fluorescence resonance energy transfer (TR-FRET) signals were read on a Spark 20M plate reader. […]

Gαs/GNP = target: T6, Gαs/GNP (Homo sapiens, UniProt P63092); assay: Bio-layer interferometry (BLI), GNP-bound Gαs; settings: immobilized Gαs/GNP, read-out: KD, binding to Gαs/GNP
T6 construct: hexahistidine (N, cleaved yes); made in house; host or cells: E. coli BL21(DE3)
Description: as §2, §3, §4

T5 sequence (P63092 with tags, fused parts or gaps isoform P63092-2): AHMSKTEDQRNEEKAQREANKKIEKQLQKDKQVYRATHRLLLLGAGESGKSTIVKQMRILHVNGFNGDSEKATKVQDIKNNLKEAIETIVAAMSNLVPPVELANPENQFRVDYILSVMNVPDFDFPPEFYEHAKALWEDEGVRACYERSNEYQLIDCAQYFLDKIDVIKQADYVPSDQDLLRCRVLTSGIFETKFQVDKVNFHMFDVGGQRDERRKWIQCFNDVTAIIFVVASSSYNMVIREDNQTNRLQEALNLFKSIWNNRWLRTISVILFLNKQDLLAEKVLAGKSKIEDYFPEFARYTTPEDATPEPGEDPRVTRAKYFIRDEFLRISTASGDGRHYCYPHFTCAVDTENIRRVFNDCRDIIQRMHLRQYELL
T2 sequence (P63092 whole entry, canonical isoform): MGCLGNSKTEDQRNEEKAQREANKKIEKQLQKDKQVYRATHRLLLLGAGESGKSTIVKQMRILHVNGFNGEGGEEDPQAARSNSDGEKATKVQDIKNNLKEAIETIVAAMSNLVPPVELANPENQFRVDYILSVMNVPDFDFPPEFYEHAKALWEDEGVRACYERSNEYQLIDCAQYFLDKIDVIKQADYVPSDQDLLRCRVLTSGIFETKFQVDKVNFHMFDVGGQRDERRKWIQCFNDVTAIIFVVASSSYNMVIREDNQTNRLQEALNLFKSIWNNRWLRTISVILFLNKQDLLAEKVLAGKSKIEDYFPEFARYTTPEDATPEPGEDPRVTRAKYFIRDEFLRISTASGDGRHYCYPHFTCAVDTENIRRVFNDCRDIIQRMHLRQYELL
T6 sequence (P63092 with tags, fused parts or gaps isoform P63092-2): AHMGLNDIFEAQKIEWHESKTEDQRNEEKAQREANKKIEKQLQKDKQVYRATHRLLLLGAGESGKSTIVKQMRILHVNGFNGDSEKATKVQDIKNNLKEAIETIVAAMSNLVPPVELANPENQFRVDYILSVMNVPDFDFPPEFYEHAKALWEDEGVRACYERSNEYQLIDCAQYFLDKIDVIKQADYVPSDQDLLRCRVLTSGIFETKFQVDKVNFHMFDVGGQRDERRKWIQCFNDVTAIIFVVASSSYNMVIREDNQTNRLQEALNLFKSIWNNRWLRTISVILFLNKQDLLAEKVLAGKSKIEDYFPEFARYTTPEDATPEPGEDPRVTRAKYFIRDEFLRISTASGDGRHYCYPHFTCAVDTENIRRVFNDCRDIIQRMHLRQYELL

SMILES	half-life at 10 μM (Plasma stability assay) [h]	Kd (Gαs/GDP) [µM]	IC50 (long isoform of Gαs) [µM]	IC50 (Gαs/GDP and Gβγ(C68S)) [µM]	IC50 (Gαs) [µM]	half-life at 10 μM [1] [h]	IC50 (Gαs (short isoform)) [µM]	Kd (Gαs/GNP) [µM]
CC[C@H](C)[C@@H]1NC(=O)[C@H](CC(C)C)NC(=O)[C@@H](Cc2ccc(O)cc2)NC(=O)CSC[C@@H](C(=O)NCC(N)=O)NC(=O)[C@@H]2CCCN2C(=O)[C@H](CC(C)C)NC(=O)[C@H](CC(N)=O)NC(=O)[C@H](Cc2ccccc2)NC(=O)[C@H](C)NC(=O)[C@H](Cc2c[nH]c3ccccc23)NC(=O)[C@H](CCC(N)=O)NC(=O)[C@H](CCCNC(=N)N)NC(=O)[C@H](Cc2ccccc2)NC(=O)[C@H]([C@@H](C)O)NC1=O [GD20] ({CH2CO}-[dY]LITFRQWAFNLPCG-NH2; thioether N-14)	16.4 to 27.1	0.0314 ± 0.0007	1.32 ± 0.17	0.0184 ± 0.002	1.15 ± 0.16	> 142	–	–
CC[C@H](C)[C@@H]1NC(=O)[C@H](C)NC(=O)[C@H](Cc2ccc(O)cc2)NC(=O)[C@H](C(C)C)NC(=O)[C@H](CO)NC(=O)[C@H](CCC(=O)O)NC(=O)[C@H](Cc2ccccc2)NC(=O)[C@@H](Cc2ccc(O)cc2)NC(=O)CSC[C@@H](C(=O)NCC(N)=O)NC(=O)[C@H](CC(C)C)NC(=O)[C@H]([C@@H](C)O)NC(=O)CNC(=O)[C@H](Cc2c[nH]c3ccccc23)NC1=O [GN13] ({CH2CO}-[dY]FESVYAIWGTLCG-NH2; thioether N-13)	> 82	–	–	–	–	> 76	4.15 ± 1.13	0.19 ± 0.02
